This experiment deals with T1, MIF (Homo sapiens, UniProt P14174).
T1 sequence (P14174 2-115 limits assumed): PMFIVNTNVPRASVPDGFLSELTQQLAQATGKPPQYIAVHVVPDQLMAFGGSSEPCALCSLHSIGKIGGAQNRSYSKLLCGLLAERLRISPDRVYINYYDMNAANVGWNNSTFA
As to the kind of experiment: MIF tautomerase assay using pHPP as substrate. The settings on record: inhibition of the MIF enzyme in vitro, mean of multiple test results; for IC50: read-out: Tautomerase Inhibition pIC50 (converted). The experiment is classed as biochemical. As for the experimental part:
Tautomerase Assay Using pHPP as Substrate
This assay measured MIF's tautomerase activity in a cell-free system and was based on the determination of initial rates of the MIF-catalyzed conversion of the ketonic into the enolic tautomer of pHPP. This was achieved by spectrophotometric quantification of the complex between borate and the product of the reaction (enolic pHPP). The substrate was prepared by conversion of the enolic pHPP into its ketonic form. To achieve this, 0.5 M pHPP in methanol was diluted 10-fold with 50 mM sodium acetate buffer at pH 6.0, and then the suspension was shaken for 24 h at room temperature in darkness, and finally stored at 4° C. for not more than 1 week, with 5 min sonication being recommended before use.
Assays were performed in small-volume clear-bottom black 96 or 384-well polystyrene plates (Greiner Bio-One). First, 2 μL of the enzyme solution containing 6 nM of MIF in DPBS, 0.025% w/v BSA, and 300 μM CHAPS was dispensed onto sample and negative control wells using Multidrop Combi with metallic tip cassettes (Thermo Fisher Scientific) previously treated with Sigmacote. Then, 2 μL of the same buffer without MIF was dispensed onto positive control wells. The reaction was started by addition of the following to all wells: 2 μL of substrate solution containing 3 mM ketonic pHPP in 200 mM boric acid, 25 mM sodium phosphate, 0.025% w/v BSA, and 300 μM CHAPS at pH 6.0. In order to remove bubbles, the plate was centrifuged in an Allegra 25R centrifuge (Beckman Coulter, Inc., Brea, Calif.) at 1000 rpm for 2 min at room temperature. Then, the plate was read in an EnVision. Final concentrations of enzyme and substrate were 3 nM and 1.5 mM, respectively. Initial rates were calculated for each well as the slope of the absorbance progress curve.
All exemplified compounds (Examples 1-230) were tested in the MIF tautomerase assay or a similar assay described above. The data mentioned below represents a mean pIC50 value of multiple test results. It is understood that the data illustrated below may have reasonable variation depending on the specific conditions and procedures used by the person conducting the testing.

Results on 14 compounds are retold here after patent publication US20220144838A1, “Compounds as Inhibitors of Macrophage Migration Inhibitory Factor” (NANJING IMMUNOPHAGE BIOTECH CO., LTD., priority 2019, published 2022).

On to “4-(4-(7-(2-hydroxyethyl)-4-(indolin-1-yl)-7H-pyrrolo[2,3-d]pyrimidin-2-yl)piperazin-1-yl)phenol [Example 1]”, for which the “Tautomerase Inhibition pIC50” value was “B (B means 5.01 to 6)”. Consider `Nc1nc(N2CCN(c3ccc(O)cc3)CC2)nc2c1ncn2C1CCCC(C(=O)O)C1` (mixture of isomers) [Example 189, 3-(6-amino-2-(4-(4-hydroxyphenyl)piperazin-1-yl)-9H-purin-9-yl)cyclohexane-1-carboxylic acid], for which the IC50 was over 10000 nM. Same read-out and setting: the figure for `O=C1Cc2ccccc2N1c1nc(N2CCN(c3ccc(O)cc3)CC2)nc2c1ncn2CCO` [Example 2, 1-(9-(2-hydroxyethyl)-2-(4-(4-hydroxyphenyl)piperazin-1-yl)-9H-purin-6-yl)indolin-2-one] is 100 to 977 nM. Take `OCCn1cnc2c(-n3ncc4ccccc43)nc(N3CCN(c4ccc(O)cc4)CC3)nc21` [Example 3, 4-(4-(9-(2-hydroxyethyl)-6-(1H-indazol-1-yl)-9H-purin-2-yl)piperazin-1-yl)phenol]: the IC50 was 100 to 977 nM. With `C[C@H](Nc1nc(N2CCN(c3ccc(O)cc3)CC2)nc2c1ncn2CCO)c1ccccc1` [Example 4, (S)-4-(4-(9-(2-hydroxyethyl)-6-((1-phenylethyl)amino)-9H-purin-2-yl)piperazin-1-yl)phenol], the IC50 is over 10000 nM.

Take `OCCn1cnc2c(N[C@@H](CO)Cc3ccccc3)nc(N3CCN(c4ccc(O)cc4)CC3)nc21` [Example 5, (R)-4-(4-(6-((1-hydroxy-3-phenylpropan-2-yl)amino)-9-(2-hydroxyethyl)-9H-purin-2-yl)piperazin-1-yl)phenol]: the IC50 was over 10000 nM. Regarding `OCCn1cnc2c(N[C@@H]3CCc4ccccc43)nc(N3CCN(c4ccc(O)cc4)CC3)nc21` [Example 6, (R)-4-(4-(6-((2,3-dihydro-1H-inden-1-yl)amino)-9-(2-hydroxyethyl)-9H-purin-2-yl)piperazin-1-yl)phenol], the IC50 is over 10000 nM. Still for that read-out and setting: to `OCCCn1cnc2c(N3CCc4ccccc43)nc(N3CCN(c4ccc(O)cc4)CC3)nc21` [Example 7, 4-(4-(9-(3-hydroxypropyl)-6-(indolin-1-yl)-9H-purin-2-yl)piperazin-1-yl)phenol] belongs 1000 to 9770 nM; to `O=C(O)CCn1cnc2c(N3CCc4ccccc43)nc(N3CCN(c4ccc(O)cc4)CC3)nc21` [Example 8, 3-(2-(4-(4-hydroxyphenyl)piperazin-1-yl)-6-(indolin-1-yl)-9H-purin-9-yl)propanoic acid], 100 to 977 nM; to `OCCn1cnc2c(-n3cnc4ccccc43)nc(N3CCN(c4ccc(O)cc4)CC3)nc21` [Example 9, 4-(4-(6-(1H-benzo[d]imidazol-1-yl)-9-(2-hydroxyethyl)-9H-purin-2-yl)piperazin-1-yl)phenol], 100 to 977 nM.

On to `O=C(O)Cn1cnc2c(-n3nc(C(=O)O)c4ccccc43)nc(N3CCN(c4ccc(O)cc4)CC3)nc21` [Example 10, 1-(9-(carboxymethyl)-2-(4-(4-hydroxyphenyl)piperazin-1-yl)-9H-purin-6-yl)-1H-indazole-3-carboxylic acid], for which the IC50 is 10 to 97.7 nM. As for `O=C(O)Cn1cnc2c(-n3nc(CO)c4ccccc43)nc(N3CCN(c4ccc(O)cc4)CC3)nc21` [Example 11, 2-(6-(3-(hydroxymethyl)-1H-indazol-1-yl)-2-(4-(4-hydroxyphenyl)piperazin-1-yl)-9H-purin-9-yl)acetic acid], the IC50 is 10 to 97.7 nM. On to `Oc1ccc(N2CCN(c3nc(-n4ncc5ccccc54)c4ncn(-c5cccnc5)c4n3)CC2)cc1` [Example 12, 4-(4-(6-(1H-indazol-1-yl)-9-(pyridin-3-yl)-9H-purin-2-yl)piperazin-1-yl)phenol], for which the IC50 is 100 to 977 nM.

Turning to `Oc1ccc(N2CCN(c3cc(-n4ncc5ccccc54)n4ncc(Br)c4n3)CC2)cc1` [Example 13, 4-(4-(3-bromo-7-(1H-indazol-1-yl)pyrazolo[1,5-a]pyrimidin-5-yl)piperazin-1-yl)phenol], the IC50 is over 10000 nM.
